Experiments:
Assay in all cases: selective drug sensitivity score (sDSS, relative to normal bone marrow) (sDSS (score)); higher = more potent and effective on the cell line relative to normal bone marrow cells
Details in all cases: 72 h
[1] = test system: SUP-B15
[2] = test system: NALL-1
[3] = test system: 697
[4] = test system: NALM-16
[5] = test system: MHH-CALL-2
[6] = test system: MOLT-16
[7] = test system: HPB-ALL
[8] = test system: COG-LL-317
[9] = test system: COG-LL-402h
[10] = test system: JURKAT
[11] = test system: REH
[12] = test system: MOLT-14
[13] = test system: NALM-6
[14] = test system: KOPN-8
[15] = test system: RPMI-8402
[16] = test system: KASUMI-9
[17] = test system: MHH-CALL-3
[18] = test system: TANOUE
[19] = test system: HAL-01
[20] = test system: 380
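Also: ALL cell lines in 384-well plates, five doses spanning 10,000-fold, each plate scaled between vehicle and 100 µmol/L benzalkonium chloride controls, sDSS an adapted area-under-curve metric.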

SMILES | selective drug sensitivity score [1] | selective drug sensitivity score [2] | selective drug sensitivity score [3] | selective drug sensitivity score [4] | selective drug sensitivity score [5] | selective drug sensitivity score [6] | selective drug sensitivity score [7] | selective drug sensitivity score [8] | selective drug sensitivity score [9] | selective drug sensitivity score [10] | selective drug sensitivity score [11] | selective drug sensitivity score [12] | selective drug sensitivity score [13] | selective drug sensitivity score [14] | selective drug sensitivity score [15] | selective drug sensitivity score [16] | selective drug sensitivity score [17] | selective drug sensitivity score [18] | selective drug sensitivity score [19] | selective drug sensitivity score [20]
O=c1[nH]cc(F)c(=O)[nH]1 [Fluorouracil] (top concentration 10000 nM) | 3.46 | -0.24 | 3.46 | -0.24 | -0.04 | 6.36 | -0.24 | 8.26 | 3.36 | 0.16 | 1.76 | 5.76 | 1.86 | 2.96 | 2.66 | 3.26 | -0.24 | -0.64 | -0.44 | 1.86
CC(C)C(=O)Nc1ccc([N+](=O)[O-])c(C(F)(F)F)c1 [Flutamide] (top concentration 10000 nM) | -0.56 | 8.04 | 1.94 | -0.56 | 9.74 | 0.34 | -0.56 | -0.56 | -0.56 | 1.84 | -0.56 | -0.56 | -0.46 | 4.24 | 0.74 | 1.64 | -0.56 | 0.04 | 3.94 | -0.56
C[C@]12CC[C@@H]3c4ccc(O)cc4C[C@@H](CCCCCCCCC[S+]([O-])CCCC(F)(F)C(F)(F)F)[C@H]3[C@@H]1CC[C@@H]2O (stereo not given in full) [Fulvestrant] (top concentration 1000 nM) | 0 | 1.6 | 0 | 0 | 1.5 | 0 | 0.2 | 0 | 0 | 0 | 0.2 | 0 | 0 | 0 | 0 | 0 | 0 | 0 | 0 | 0
CCCOc1ccn2c(C(C)=O)cc(-c3ccccc3S(C)(=O)=O)c2c1 [GSK2801] (top concentration 10000 nM) | -0.36 | -0.36 | -0.16 | -0.36 | -0.16 | -0.16 | -0.36 | 0.84 | -0.36 | -0.26 | -0.36 | 2.64 | -0.36 | 1.94 | -0.16 | -0.36 | -0.36 | -0.36 | -0.36 | 3.44
Cc1cccc(-c2nn3c(c2-c2ccnc4ccc(C(N)=O)cc24)CCC3)n1 [Galunisertib] (top concentration 1000 nM) | 0 | 0 | 0 | 0 | 8.5 | 0 | 0 | 0 | 0 | 0 | 0 | 0 | 0 | 0 | 0 | 1.3 | 0 | 0 | 1.6 | 0
O=C(O)CNC(=O)c1c(O)c2ccccc2n(Cc2ccccc2)c1=O [IOX-2] (top concentration 50000 nM) | -0.82 | -0.82 | 2.28 | -0.62 | 1.78 | -0.82 | 0.68 | -0.82 | -0.82 | -0.82 | -0.82 | -0.82 | -0.32 | 2.48 | -0.82 | -0.42 | 0.88 | -0.82 | -0.82 | 8.98
C#Cc1cccc(Nc2ncnc3cc4c(cc23)OCCOCCOCCO4)c1 [Icotinib] (top concentration 10000 nM) | 1.2 | 6.5 | 3.2 | 0 | 4.8 | 2.2 | 0 | 0 | 0 | 0 | 0 | 0 | 0 | 5.7 | 2.3 | 4.9 | 1.3 | 0 | 1.2 | 3.6
CC(C)Cn1cnc2c(N)nc3ccccc3c21 [Imiquimod] (top concentration 2500 nM) | 0.3 | 0 | 0.4 | 0 | 1.7 | 0.5 | 2.6 | 0 | 0 | 0 | 5.1 | 0 | 0.4 | 2.7 | 0 | 0.9 | 0 | 0.1 | 2.6 | 9
N#Cc1ccnc(N2C(=O)CC[C@H]2C(=O)N(c2cncc(F)c2)[C@H](C(=O)NC2CC(F)(F)C2)c2ccccc2Cl)c1 [Ivosidenib] (top concentration 10000 nM) | 0 | 0 | 0.1 | 0 | 11.9 | 1 | 0 | 1.8 | 0 | 0.7 | 0.6 | 0.1 | 0 | 0.2 | 0.8 | 0.9 | 0 | 0 | 3.2 | 3
C/C(=C\c1csc(C)n1)[C@@H]1C[C@@H]2O[C@]2(C)CCC[C@H](C)[C@H](O)[C@@H](C)C(=O)C(C)(C)[C@@H](O)CC(=O)N1 [Ixabepilone] (top concentration 1000 nM) | 5.08 | 1.68 | 4.68 | 2.88 | 1.88 | 4.68 | 7.08 | 2.98 | 1.58 | 3.28 | 3.78 | 4.58 | 4.48 | 6.98 | 2.78 | 2.58 | -0.42 | -1.92 | 1.78 | 2.08
Nc1cc(COc2c(Cl)cc(C[C@H](N)C(=O)O)cc2Cl)c2oc(-c3ccccc3)nc2c1 [JPH203] (top concentration 5000 nM) | 0 | 0 | 0 | 0 | 0 | 0 | 0 | 0 | 0 | 0 | 0.2 | 0 | 0 | 0 | 0.5 | 2.2 | 0 | 0 | 0.4 | 1.2
CS(=O)(=O)CCNCc1ccc(-c2ccc3ncnc(Nc4ccc(OCc5cccc(F)c5)c(Cl)c4)c3c2)o1 [Lapatinib] (top concentration 1000 nM) | 0 | 0 | 0 | 0 | 12.1 | 0 | 0 | 0 | 0 | 0 | 0 | 0 | 0 | 0 | 0 | 0.2 | 0 | 0 | 2.2 | 0
Oc1ccc2c(c1)CC[C@H](c1ccccc1)[C@@H]2c1ccc(OCCN2CCCC2)cc1 [Lasofoxifene] (top concentration 1000 nM) | -1.28 | -1.28 | -1.28 | -1.28 | -1.28 | 1.12 | 7.52 | -1.28 | -0.18 | -1.28 | -1.28 | -1.28 | -1.28 | -1.28 | -1.28 | -1.28 | -1.28 | -1.08 | -0.08 | -1.28
Cc1ccc(F)c(NC(=O)Nc2ccc(-c3cccc4[nH]nc(N)c34)cc2)c1 [Linifanib] (top concentration 1000 nM) | -1.12 | -1.12 | -1.12 | -1.12 | -1.12 | -1.12 | -1.12 | -1.12 | -1.12 | -1.12 | -1.12 | -1.12 | -1.12 | -1.12 | -1.12 | -1.12 | -1.12 | -1.12 | -1.12 | -1.12
Cc1c(F)cc(C(=O)NC2CC2)cc1-c1ccc(C(=O)NCC(C)(C)C)cn1 [Losmapimod] (top concentration 10000 nM) | 0.42 | -0.18 | 2.72 | -0.18 | -0.18 | 0.12 | 2.32 | -0.18 | 0.42 | -0.18 | -0.18 | -0.18 | 0.82 | 4.42 | -0.18 | 6.92 | -0.18 | 1.32 | -0.08 | -0.18
CNC(=O)c1cccc2cc(Oc3ccnc4cc(OCC5(N)CC5)c(OC)cc34)ccc12 [Lucitanib] (top concentration 10000 nM) | 3.48 | 0.58 | 5.48 | -0.62 | 4.18 | 3.98 | 3.18 | 2.78 | 3.58 | 2.78 | 6.88 | 2.28 | 1.58 | 6.38 | 1.88 | 6.28 | -0.62 | 0.28 | 3.88 | 1.18
O=C1c2c(O)ccc(O)c2C(=O)c2c(NCCNCCO)ccc(NCCNCCO)c21 [Mitoxantrone] (top concentration 1000 nM) | 15.7 | -5.06 | 15.6 | -5.06 | 7.34 | 17 | -3.06 | 16.2 | 15.8 | -3.86 | 12.6 | 11.6 | 2.44 | 16.3 | 6.34 | 11.8 | 14.4 | -12.9 | 5.64 | 16.3
CC1(C)CNc2cc(NC(=O)c3cccnc3NCc3ccncc3)ccc21 [Motesanib] (top concentration 10000 nM) | -0.22 | -0.22 | -0.22 | -0.22 | -0.22 | -0.22 | -0.22 | -0.22 | 1.98 | -0.22 | -0.22 | -0.22 | 1.28 | -0.22 | -0.22 | -0.22 | -0.22 | 1.58 | -0.22 | -0.22

Reference: the supplement of paper PMC8967900
